Legend:
Assay in all cases: Test B preemergence/postemergence greenhouse plant response rating 0 to 10
crabgrass = format: in vivo, Digitaria spp.; conditions: for Plant response rating, Crabgrass: 0 to 10 scale
Method in brief: (§1)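 Postemergence treatment of plants two to eighteen cm tall ran alongside preemergence treatment of planted seed, each using compound in a non-phytotoxic solvent.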

wild oat = format: in vivo, Avena fatua; conditions: for Plant response rating, Wild oat: 0 to 10 scale
Method in brief: as §1

bedstraw = format: in vivo, Galium aparine; conditions: for Plant response rating, Bedstraw: 0 to 10 scale
Method in brief: as §1

chickweed = format: in vivo, Stellaria media; conditions: for Plant response rating, Chickweed: 0 to 10 scale
Method in brief: as §1

sugar beet = format: in vivo, Beta vulgaris; conditions: for Plant response rating, Sugar beet: 0 to 10 scale
Method in brief: as §1

cheatgrass = format: in vivo, Bromus secalinus; conditions: for Plant response rating, Cheatgrass: 0 to 10 scale
Method in brief: as §1

giant foxtail = format: in vivo, Setaria faberii; conditions: for Plant response rating, Giant foxtail: 0 to 10 scale
Method in brief: as §1

lambsquarters = format: in vivo, Chenopodium album; conditions: for Plant response rating, Lambsquarter: 0 to 10 scale
Method in brief: as §1

corn = format: in vivo, Zea mays; conditions: for Plant response rating, Corn: 0 to 10 scale
Method in brief: as §1

rice = format: in vivo, Oryza sativa; conditions: for Plant response rating, Rice: 0 to 10 scale
Method in brief: as §1

cocklebur = format: in vivo, Xanthium pensylvanicum; conditions: for Plant response rating, Cocklebur: 0 to 10 scale
Method in brief: as §1

soybean = format: in vivo, Glycine max; conditions: for Plant response rating, Soybean: 0 to 10 scale
Method in brief: as §1

wild buckwheat = format: in vivo, Polygonum convolvulus; conditions: for Plant response rating, Wild buckwheat: 0 to 10 scale
Method in brief: as §1

sorghum = format: in vivo, Sorghum bicolor; conditions: for Plant response rating, Sorghum: 0 to 10 scale
Method in brief: as §1

cotton = format: in vivo, Gossypium hirsutum; conditions: for Plant response rating, Cotton: 0 to 10 scale
Method in brief: as §1

wheat = format: in vivo, Triticum aestivum; conditions: for Plant response rating, Wheat: 0 to 10 scale
Method in brief: as §1

purple nutsedge = format: in vivo, Cyperus rotundus; conditions: for Plant response rating, Nutsedge: 0 to 10 scale
Method in brief: as §1

blackgrass = format: in vivo, Alopecurus myosuroides; conditions: for Plant response rating, Blackgrass: 0 to 10 scale
Method in brief: as §1

morningglory = format: in vivo, Ipomoea hederacea; conditions: for Plant response rating, Morningglory: 0 to 10 scale
Method in brief: as §1

barley = format: in vivo, Hordeum vulgare; conditions: for Plant response rating, Barley: 0 to 10 scale
Method in brief: as §1

rape = format: in vivo, Brassica napus; conditions: for Plant response rating, Rape: 0 to 10 scale
Method in brief: as §1

velvetleaf = format: in vivo, Abutilon theophrasti; conditions: for Plant response rating, Velvetleaf: 0 to 10 scale
Method in brief: as §1

barnyardgrass = format: in vivo, Echinochloa crus-galli; conditions: for Plant response rating, Barnyardgrass: 0 to 10 scale
Method in brief: as §1

CC(C)Oc1cc(-c2nn3c(c2Cl)CCCC3)c(Cl)cc1Cl [Compound 70]
Plant response rating, Crabgrass (crabgrass; POSTEMERGENCE, Rate 50 g/ha): 3 | Plant response rating, Crabgrass (crabgrass; PREEMERGENCE, Rate 50 g/ha): 0 | Plant response rating (0 to 10 scale), Crabgrass (crabgrass; PREEMERGENCE, Rate 200 g/ha): 2 | Plant response rating, Crabgrass (crabgrass; Rate 200 g/ha, POSTEMERGENCE): 6 | Plant response rating, Wild oat (wild oat; POSTEMERGENCE, Rate 50 g/ha): 2 | Plant response rating, Wild oat (wild oat; PREEMERGENCE, Rate 50 g/ha): 2 | Plant response rating (0 to 10 scale), Wild oat (wild oat; PREEMERGENCE, Rate 200 g/ha): 3 | Plant response rating, Wild oat (wild oat; Rate 200 g/ha, POSTEMERGENCE): 3 | Plant response rating, Bedstraw (bedstraw; POSTEMERGENCE, Rate 50 g/ha): 8 | Plant response rating, Bedstraw (bedstraw; PREEMERGENCE, Rate 50 g/ha): 1 | Plant response rating (0 to 10 scale), Bedstraw (bedstraw; PREEMERGENCE, Rate 200 g/ha): 6 | Plant response rating, Bedstraw (bedstraw; Rate 200 g/ha, POSTEMERGENCE): 7 | Plant response rating, Chickweed (chickweed; POSTEMERGENCE, Rate 50 g/ha): 2 | Plant response rating, Chickweed (chickweed; PREEMERGENCE, Rate 50 g/ha): 0 | Plant response rating (0 to 10 scale), Chickweed (chickweed; PREEMERGENCE, Rate 200 g/ha): 0 | Plant response rating, Chickweed (chickweed; Rate 200 g/ha, POSTEMERGENCE): 3 | Plant response rating, Sugar beet (sugar beet; POSTEMERGENCE, Rate 50 g/ha): 10 | Plant response rating, Sugar beet (sugar beet; PREEMERGENCE, Rate 50 g/ha): 6 | Plant response rating (0 to 10 scale), Sugar beet (sugar beet; PREEMERGENCE, Rate 200 g/ha): 10 | Plant response rating, Sugar beet (sugar beet; Rate 200 g/ha, POSTEMERGENCE): 10 | Plant response rating, Cheatgrass (cheatgrass; POSTEMERGENCE, Rate 50 g/ha): 3 | Plant response rating, Cheatgrass (cheatgrass; PREEMERGENCE, Rate 50 g/ha): 0 | Plant response rating (0 to 10 scale), Cheatgrass (cheatgrass; PREEMERGENCE, Rate 200 g/ha): 2 | Plant response rating, Cheatgrass (cheatgrass; Rate 200 g/ha, POSTEMERGENCE): 4 | Plant response rating, Giant foxtail (giant foxtail; POSTEMERGENCE, Rate 50 g/ha): 5 | Plant response rating, Giant foxtail (giant foxtail; PREEMERGENCE, Rate 50 g/ha): 0 | Plant response rating (0 to 10 scale), Giant foxtail (giant foxtail; PREEMERGENCE, Rate 200 g/ha): 4 | Plant response rating, Giant foxtail (giant foxtail; Rate 200 g/ha, POSTEMERGENCE): 5 | Plant response rating, Lambsquarter (lambsquarters; POSTEMERGENCE, Rate 50 g/ha): 9 | Plant response rating, Lambsquarter (lambsquarters; PREEMERGENCE, Rate 50 g/ha): 7 | Plant response rating (0 to 10 scale), Lambsquarter (lambsquarters; PREEMERGENCE, Rate 200 g/ha): 10 | Plant response rating, Lambsquarter (lambsquarters; Rate 200 g/ha, POSTEMERGENCE): 10 | Plant response rating, Corn (corn; POSTEMERGENCE, Rate 50 g/ha): 4 | Plant response rating, Corn (corn; PREEMERGENCE, Rate 50 g/ha): 0 | Plant response rating (0 to 10 scale), Corn (corn; PREEMERGENCE, Rate 200 g/ha): 0 | Plant response rating, Corn (corn; Rate 200 g/ha, POSTEMERGENCE): 4 | Plant response rating, Rice (rice; POSTEMERGENCE, Rate 50 g/ha): 5 | Plant response rating, Rice (rice; PREEMERGENCE, Rate 50 g/ha): 0 | Plant response rating (0 to 10 scale), Rice (rice; PREEMERGENCE, Rate 200 g/ha): 0 | Plant response rating, Rice (rice; Rate 200 g/ha, POSTEMERGENCE): 5 | Plant response rating, Cocklebur (cocklebur; POSTEMERGENCE, Rate 50 g/ha): 8 | Plant response rating, Cocklebur (cocklebur; PREEMERGENCE, Rate 50 g/ha): 0 | Plant response rating (0 to 10 scale), Cocklebur (cocklebur; PREEMERGENCE, Rate 200 g/ha): 0 | Plant response rating, Cocklebur (cocklebur; Rate 200 g/ha, POSTEMERGENCE): 8 | Plant response rating, Soybean (soybean; POSTEMERGENCE, Rate 50 g/ha): 5 | Plant response rating, Soybean (soybean; PREEMERGENCE, Rate 50 g/ha): 0 | Plant response rating (0 to 10 scale), Soybean (soybean; PREEMERGENCE, Rate 200 g/ha): 0 | Plant response rating, Soybean (soybean; Rate 200 g/ha, POSTEMERGENCE): 6 | Plant response rating, Wild buckwheat (wild buckwheat; POSTEMERGENCE, Rate 50 g/ha): 10 | Plant response rating, Wild buckwheat (wild buckwheat; PREEMERGENCE, Rate 50 g/ha): 8 | Plant response rating (0 to 10 scale), Wild buckwheat (wild buckwheat; PREEMERGENCE, Rate 200 g/ha): 8 | Plant response rating, Wild buckwheat (wild buckwheat; Rate 200 g/ha, POSTEMERGENCE): 10 | Plant response rating, Sorghum (sorghum; POSTEMERGENCE, Rate 50 g/ha): 5 | Plant response rating, Sorghum (sorghum; PREEMERGENCE, Rate 50 g/ha): 0 | Plant response rating (0 to 10 scale), Sorghum (sorghum; PREEMERGENCE, Rate 200 g/ha): 0 | Plant response rating, Sorghum (sorghum; Rate 200 g/ha, POSTEMERGENCE): 6 | Plant response rating, Cotton (cotton; POSTEMERGENCE, Rate 50 g/ha): 10 | Plant response rating, Cotton (cotton; PREEMERGENCE, Rate 50 g/ha): 0 | Plant response rating (0 to 10 scale), Cotton (cotton; PREEMERGENCE, Rate 200 g/ha): 0 | Plant response rating, Cotton (cotton; Rate 200 g/ha, POSTEMERGENCE): 10 | Plant response rating, Wheat (wheat; POSTEMERGENCE, Rate 50 g/ha): 4 | Plant response rating, Wheat (wheat; PREEMERGENCE, Rate 50 g/ha): 2 | Plant response rating (0 to 10 scale), Wheat (wheat; PREEMERGENCE, Rate 200 g/ha): 3 | Plant response rating, Wheat (wheat; Rate 200 g/ha, POSTEMERGENCE): 5 | Plant response rating, Nutsedge (purple nutsedge; POSTEMERGENCE, Rate 50 g/ha): 1 | Plant response rating, Nutsedge (purple nutsedge; PREEMERGENCE, Rate 50 g/ha): 0 | Plant response rating (0 to 10 scale), Nutsedge (purple nutsedge; PREEMERGENCE, Rate 200 g/ha): 0 | Plant response rating, Nutsedge (purple nutsedge; Rate 200 g/ha, POSTEMERGENCE): 5 | Plant response rating, Blackgrass (blackgrass; PREEMERGENCE, Rate 50 g/ha): 0 | Plant response rating (0 to 10 scale), Blackgrass (blackgrass; PREEMERGENCE, Rate 200 g/ha): 0 | Plant response rating, Blackgrass (blackgrass; Rate 200 g/ha, POSTEMERGENCE): 3 | Plant response rating, Morningglory (morningglory; POSTEMERGENCE, Rate 50 g/ha): 7 | Plant response rating, Morningglory (morningglory; PREEMERGENCE, Rate 50 g/ha): 0 | Plant response rating (0 to 10 scale), Morningglory (morningglory; PREEMERGENCE, Rate 200 g/ha): 0 | Plant response rating, Morningglory (morningglory; Rate 200 g/ha, POSTEMERGENCE): 8 | Plant response rating, Barley (barley; POSTEMERGENCE, Rate 50 g/ha): 3 | Plant response rating, Barley (barley; PREEMERGENCE, Rate 50 g/ha): 0 | Plant response rating (0 to 10 scale), Barley (barley; PREEMERGENCE, Rate 200 g/ha): 0 | Plant response rating, Barley (barley; Rate 200 g/ha, POSTEMERGENCE): 4 | Plant response rating, Rape (rape; POSTEMERGENCE, Rate 50 g/ha): 7 | Plant response rating, Rape (rape; PREEMERGENCE, Rate 50 g/ha): 2 | Plant response rating (0 to 10 scale), Rape (rape; PREEMERGENCE, Rate 200 g/ha): 3 | Plant response rating, Rape (rape; Rate 200 g/ha, POSTEMERGENCE): 9 | Plant response rating, Velvetleaf (velvetleaf; POSTEMERGENCE, Rate 50 g/ha): 10 | Plant response rating, Velvetleaf (velvetleaf; PREEMERGENCE, Rate 50 g/ha): 0 | Plant response rating (0 to 10 scale), Velvetleaf (velvetleaf; PREEMERGENCE, Rate 200 g/ha): 5 | Plant response rating, Velvetleaf (velvetleaf; Rate 200 g/ha, POSTEMERGENCE): 10 | Plant response rating, Barnyardgrass (barnyardgrass; POSTEMERGENCE, Rate 50 g/ha): 6 | Plant response rating, Barnyardgrass (barnyardgrass; PREEMERGENCE, Rate 50 g/ha): 0 | Plant response rating (0 to 10 scale), Barnyardgrass (barnyardgrass; PREEMERGENCE, Rate 200 g/ha): 0 | Plant response rating, Barnyardgrass (barnyardgrass; Rate 200 g/ha, POSTEMERGENCE): 7

Source: patent publication US6358885B1, “Substituted phenylheterocyclic herbicides” (Mississippi State University, priority 1992, dated 2002)
